Where two headings read alike, the source gives them in different places.
Assays:
Test in all cases: Test A postemergence
Type in all cases: in vivo
[1] = tested on: corn (Zea mays); conditions: Zea mays, post-emergence, 240 h; for Corn plant response rating (crop injury, 0 = no effect, 100 = complete kill) at 125 g/ha / plant injury at 125 g/ha: 125 g ai/ha, postemergence; for Corn plant response rating (crop injury, 0 = no effect, 100 = complete kill) at 125 g/ha: visual injury after approximately 10 d, 0 to 100 scale (0 no effect, 100 complete control); for Corn plant response rating (crop injury, 0 = no effect, 100 = complete kill) at 31 g/ha: Postemergence, 31 g ai/ha, visual injury after approx. 10 d, 0 to 100 scale, 100 complete control; for plant injury at 125 g/ha: visual injury rating after approximately 10 d, read-out: Corn plant response rating (0 to 100 scale, 0 no effect, 100 complete control)
In short: (§1)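 Greenhouse, ~10 d after spray; visual injury vs untreated controls, 0 = no effect, 100 = complete control. Preemergence: directed soil spray over planted seeds. Postemergence: plants 2–10 cm, 1–2 leaf stage. Loam/sand blend. Compound in non-phytotoxic solvent with surfactant.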

[2] = tested on: Galium (catchweed bedstraw, Galium aparine); conditions: Galium, post-emergence, 240 h; for pest or weed control at 125 g/ha: 125 g ai/ha, postemergence; for pest or weed control at 31 g/ha: Postemergence, 31 g ai/ha, visual injury after approx. 10 d, 0 to 100 scale, 0 no effect, 100 complete control
In short: as §1

[3] = tested on: ragweed (common ragweed, Ambrosia elatior); conditions: Ambrosia artemisiifolia, post-emergence, 240 h; for pest or weed control at 125 g/ha: 125 g ai/ha, postemergence; for pest or weed control at 31 g/ha: Postemergence, 31 g ai/ha, visual injury after approx. 10 d, 0 to 100 scale, 0 no effect, 100 complete control
In short: as §1

[4] = tested on: wheat (Triticum aestivum); conditions: Triticum aestivum, post-emergence, 240 h; for plant injury at 125 g/ha: 125 g ai/ha, postemergence; for plant injury at 31 g/ha: Postemergence, 31 g ai/ha, visual injury after approx. 10 d, 0 to 100 scale, 0 no effect, 100 complete control
In short: as §1

[5] = tested on: blackgrass (Alopecurus myosuroides); conditions: Alopecurus myosuroides, post-emergence, 240 h; for pest or weed control at 125 g/ha: 125 g ai/ha, postemergence; for pest or weed control at 31 g/ha: Postemergence, 31 g ai/ha, visual injury after approx. 10 d, 0 to 100 scale, 0 no effect, 100 complete control
In short: as §1

[6] = tested on: barnyardgrass (Echinochloa crus-galli); conditions: Echinochloa crus-galli, post-emergence, 240 h; for pest or weed control at 125 g/ha: 125 g ai/ha, postemergence; for pest or weed control at 31 g/ha: Postemergence, 31 g ai/ha, visual injury after approx. 10 d, 0 to 100 scale, 0 no effect, 100 complete control
In short: as §1

[7] = visual injury after approximately 10 d, 0 to 100 scale (0 no effect, 100 complete control), read-out: Plant response rating, Galium
[8] = visual injury after approximately 10 d, 0 to 100 scale (0 no effect, 100 complete control), read-out: Plant response rating, Ragweed
[9] = visual injury after approximately 10 d, 0 to 100 scale (0 no effect, 100 complete control), read-out: Plant response rating, Wheat
[10] = visual injury after approximately 10 d, 0 to 100 scale (0 no effect, 100 complete control), read-out: Plant response rating, Blackgrass
[11] = visual injury after approximately 10 d, 0 to 100 scale (0 no effect, 100 complete control), read-out: Plant response rating, Barnyardgrass
[12] = read-out: Plant response rating, Galium
[13] = read-out: Plant response rating, Ragweed
[14] = read-out: Plant response rating, Wheat
[15] = read-out: Plant response rating, Blackgrass
[16] = read-out: Plant response rating, Barnyardgrass
[17] = visual injury rating after approximately 10 d, read-out: Galium plant response rating (0 to 100 scale, 0 no effect, 100 complete control)
[18] = visual injury rating after approximately 10 d, read-out: Ragweed plant response rating (0 to 100 scale, 0 no effect, 100 complete control)
[19] = visual injury rating after approximately 10 d, read-out: Wheat plant response rating (0 to 100 scale, 0 no effect, 100 complete control)
[20] = visual injury rating after approximately 10 d, read-out: Blackgrass plant response rating (0 to 100 scale, 0 no effect, 100 complete control)
[21] = visual injury rating after approximately 10 d, read-out: Barnyardgrass plant response rating (0 to 100 scale, 0 no effect, 100 complete control)

Row | Compound | Corn plant response rating (crop injury, 0 = no effect, 100 = complete kill) at 125 g/ha [1] [%] | pest or weed control at 125 g/ha [2, 7] [%] | pest or weed control at 125 g/ha [3, 8] [%] | plant injury at 125 g/ha [4, 9] [%] | pest or weed control at 125 g/ha [5, 10] [%] | pest or weed control at 125 g/ha [6, 11] [%] | Corn plant response rating (crop injury, 0 = no effect, 100 = complete kill) at 31 g/ha [1] [%] | pest or weed control at 31 g/ha [2, 12] [%] | pest or weed control at 31 g/ha [3, 13] [%] | plant injury at 31 g/ha [4, 14] [%] | pest or weed control at 31 g/ha [5, 15] [%] | pest or weed control at 31 g/ha [6, 16] [%] | plant injury at 125 g/ha [1] [%] | pest or weed control at 125 g/ha [2, 17] [%] | pest or weed control at 125 g/ha [3, 18] [%] | plant injury at 125 g/ha [4, 19] [%] | pest or weed control at 125 g/ha [5, 20] [%] | pest or weed control at 125 g/ha [6, 21] [%]
1 | Cc1ccc(NC(=O)[C@H]2C(=O)N(C)C[C@@H]2c2cc(F)cc(F)c2)c(F)c1F [Compound 771] | 40 | 50 | 20 | 30 | 70 | 90 |  |  |  |  |  |  |  |  |  |  |  | 
2 | O=C1NC[C@H](c2ccc3c(c2)CCO3)[C@H]1C(=O)Nc1ccccc1F [Compound 786] | 0 | 10 | 0 | 0 | 0 | 80 |  |  |  |  |  |  |  |  |  |  |  | 
3 | Cc1cc([C@H]2CN(C)C(=O)[C@@H]2C(=O)Nc2cccc(F)c2F)cc(C)c1C [Compound 796] | 90 | 40 | 0 |  | 30 | 90 | 70 | 0 | 0 | 30 | 0 | 80 |  |  |  |  |  | 
4 | Cc1cc([C@H]2CN(C)C(=O)[C@@H]2C(=O)Nc2ccccc2F)cc(C)c1C [Compound 797] | 70 | 30 | 0 |  | 0 | 90 | 60 | 0 | 0 | 0 | 0 | 90 |  |  |  |  |  | 
5 | Cc1cc(F)cc([C@H]2CN(C)C(=O)[C@@H]2C(=O)Nc2cccc(F)c2C#N)c1 [Compound 800] | 20 | 30 | 0 |  | 20 | 80 | 0 | 0 | 0 | 0 | 0 | 80 |  |  |  |  |  | 
6 | Cc1cc(F)cc([C@H]2CN(C)C(=O)[C@@H]2C(=O)Nc2cccc(F)c2C)c1 [Compound 802] |  |  |  |  |  |  | 20 | 0 | 0 | 0 | 20 | 80 | 70 | 60 | 30 | 30 | 60 | 80
7 | CN1C[C@H](c2ccc(C(F)(F)F)c(Br)c2)[C@@H](C(=O)Nc2cccc(F)c2F)C1=O [Compound 804] |  |  |  |  |  |  | 0 | 40 | 0 | 0 | 0 | 20 | 50 | 50 | 0 | 20 | 20 | 70
8 | CN1CC[C@H](c2cccc(OC(F)(F)F)c2)[C@@H](C(=O)Nc2ccccc2C(F)(F)F)C1=O [Compound 806] |  |  |  |  |  |  | 0 | 0 | 0 | 0 | 0 | 0 | 0 | 0 | 0 | 0 | 0 | 0
9 | CN1CC[C@H](c2cccc(OC(F)(F)F)c2)[C@@H](C(=O)Nc2ccc(F)c(F)c2F)C1=O [Compound 808] |  |  |  |  |  |  | 0 | 0 | 0 | 0 | 0 | 50 | 0 | 0 | 0 | 0 | 0 | 70
10 | CSc1ccccc1NC(=O)[C@H]1C(=O)N(C)CC[C@@H]1c1cccc(OC(F)(F)F)c1 [Compound 809] |  |  |  |  |  |  | 0 | 0 | 0 | 0 | 0 | 0 | 0 | 0 | 0 | 0 | 0 | 0
11 | CN1CC[C@H](c2ccc3c(c2)OC(F)(F)O3)[C@@H](C(=O)Nc2ccccc2C(F)(F)F)C1=O [Compound 811] |  |  |  |  |  |  | 0 | 0 | 0 | 0 | 0 | 0 | 0 | 0 | 0 | 0 | 0 | 40
12 | CN1CC[C@H](c2ccc3c(c2)OC(F)(F)O3)[C@@H](C(=O)Nc2cccc(F)c2F)C1=O [Compound 812] |  |  |  |  |  |  | 30 | 20 | 0 | 20 | 40 | 90 | 80 | 50 | 0 | 60 | 80 | 90
13 | CN1CC[C@H](c2ccc3c(c2)OC(F)(F)O3)[C@@H](C(=O)Nc2ccc(F)c(F)c2F)C1=O [Compound 813] |  |  |  |  |  |  | 30 | 20 | 0 | 0 | 30 | 40 | 40 | 30 | 0 | 30 | 80 | 80
14 | CN1C[C@H](c2cccc(C3CC3)c2)[C@@H](C(=O)Nc2ccccc2F)C1=O [Compound 815] |  |  |  |  |  |  |  |  |  |  |  |  | 50 | 50 | 0 | 30 | 50 | 100

Source: patent publication US12077503B2, “Substituted cyclic amides and their use as herbicides” (FMC CORPORATION, priority 2015, dated 2024)
